Read-outs that look alike come from different tables or passages of the source.
Legend:
CYP3A4 mRNA = CYP3A4 mRNA induction in plated cryopreserved human hepatocytes; type: cell-based; conditions: three donors; for true negative in vitro induction: statistical dose response and fold induction
[1] = Metabolic stability in hepatocyte induction incubations; type: in vitro ADME, human; conditions: last 24 hours of the incubation
[2] = cited from earlier work
CYP3A = conditions: human, in vivo; cited from earlier work
human hepatocytes = assay: Cytotoxicity / bell-shaped curves in hepatocyte induction incubations; type: cell-based; conditions: for concentration above which cytotoxicity was seen: donor two; for concentrations removed from fitting (bell-shaped curve, suspected cytotoxicity): all donors
[3] = cited from earlier work; remark: listed apart in the source
[4] = Estimated free fraction in culture medium; conditions: bovine, hepatocyte culture medium with 1.25 mg/ml BSA
[5] = reported value before fu was set to 0.01

O=C(O)c1ccc(CN2C[C@@H]3C[C@H]2CN3Cc2ccc(Oc3ccc(-c4ncco4)cc3)cc2)cc1 [Acebilustat, acebilustat]
true negative in vitro induction (CYP3A4 mRNA): true in vitro negatives in all three donors | % loss when comparing the Cavg to the T0 concentration (limited depletion) [1]: < 25%

Cn1cnc2c(F)c(Nc3ccc(Br)cc3F)c(C(=O)NOCCO)cc21 [Binimetinib]
concentration-dependent increase in CYP3A4 mRNA (CYP3A4 mRNA): concentration-dependent increases in all three donors

COc1ccccc1Oc1c(NS(=O)(=O)c2ccc(C(C)(C)C)cc2)nc(-c2ncccn2)nc1OCCO [Bosentan]
observed fu,in vitro [2]: 0.38

NC(=O)N1c2ccccc2C=Cc2ccccc21 [Carbamazepine]
AUCR range (CYP3A): 0.124–0.603

Nc1nc(-n2cc(C(=O)O)c(=O)c3cc(F)c(N4CC(O)C4)c(Cl)c32)c(F)cc1F [Delafloxacin, delafloxacin]
concentration at which apparent cytotoxicity was seen (human hepatocytes; donor three): 300 µM | concentration above which cytotoxicity was seen (human hepatocytes): > 100 µM | true negative in vitro induction (CYP3A4 mRNA): negative in two donors | concentration-dependent increase in CYP3A4 mRNA (CYP3A4 mRNA): concentration-dependent increases in one of three donors | % loss when comparing the Cavg to the T0 concentration (limited depletion) [1]: < 25%

Cn1c(Cn2ccc(C(F)(F)F)c(Oc3cc(Cl)cc(C#N)c3)c2=O)n[nH]c1=O [Doravirine, doravirine]
concentration-dependent increase in CYP3A4 mRNA (CYP3A4 mRNA): concentration-dependent increases in all three donors | % loss when comparing the Cavg to the T0 concentration (limited depletion) [1]: < 25%

O=C1Nc2ccc(Cl)cc2[C@@](C#CC2CC2)(C(F)(F)F)O1 [Efavirenz]
fu (reported plasma protein binding) ([3]; plasma): 0.0025 | AUCR range (CYP3A): 0.240–0.929

O=C(O)CSc1nnc(Br)n1-c1ccc(C2CC2)c2ccccc12 [Lesinurad, lesinurad]
concentrations removed from fitting (bell-shaped curve, suspected cytotoxicity) (human hepatocytes): > 100 µM | concentration-dependent increase in CYP3A4 mRNA (CYP3A4 mRNA): concentration-dependent increases in all three donors | % loss when comparing the Cavg to the T0 concentration (limited depletion) [1]: < 25%

CCC1(c2ccccc2)C(=O)NC(=O)NC1=O [Phenobarbital]
AUCR (CYP3A): 0.394

O=C1NC(=O)C(c2ccccc2)(c2ccccc2)N1 [Phenytoin]
AUCR range (CYP3A): 0.105–0.607

Cc1cc(CCCOc2c(C)cc(-c3noc(C(F)(F)F)n3)cc2C)on1 [Pleconaril]
correction factor applied to nominal concentrations (nonspecific binding) [2]: 0.2 | fu (reported plasma protein binding) [3, 5]: 0.01 | fraction unbound [4]: 0.256

Cc1nnc(C(=O)NC(C)(C)c2nc(C(=O)NCc3ccc(F)cc3)c(O)c(=O)n2C)o1 [Raltegravir, raltegravir]
true negative in vitro induction (CYP3A4 mRNA): true in vitro negatives in all three donors

CO[C@H]1/C=C/O[C@@]2(C)Oc3c(C)c(O)c4c(O)c(c(/C=N/N5CCN(C)CC5)c(O)c4c3C2=O)NC(=O)/C(C)=C\C=C\[C@H](C)[C@H](O)[C@@H](C)[C@@H](O)[C@@H](C)[C@H](OC(C)=O)[C@@H]1C [Rifampicin]
% loss when comparing the Cavg to the T0 concentration (limited depletion) [1]: < 25%

CO[C@H]1/C=C/O[C@@]2(C)Oc3c(C)c(O)c4c(O)c(c5c(nc6cc(C)ccn65)c4c3C2=O)NC(=O)/C(C)=C\C=C\[C@H](C)[C@H](O)[C@@H](C)[C@@H](O)[C@@H](C)[C@H](OC(C)=O)[C@@H]1C [Rifaximin, rifaximin]
concentration-dependent increase in CYP3A4 mRNA (CYP3A4 mRNA): concentration-dependent increases in all three donors | % loss when comparing the Cavg to the T0 concentration (limited depletion) [1]: < 25%

Cc1cc(/C=C/C#N)cc(C)c1Nc1ccnc(Nc2ccc(C#N)cc2)n1 [Rilpivirine, rilpivirine]
concentration above which cytotoxicity was seen (human hepatocytes): > 100 µM | concentration above which signs of cytotoxicity were seen (human hepatocytes; donors one): > 30 µM | concentration-dependent increase in CYP3A4 mRNA (CYP3A4 mRNA): concentration-dependent increases in all three donors

CC(C)N(CCCCOCC(=O)NS(C)(=O)=O)c1cnc(-c2ccccc2)c(-c2ccccc2)n1 [Selexipag, selexipag]
concentration-dependent increase in CYP3A4 mRNA (CYP3A4 mRNA): concentration-dependent increases in all three donors | fu (reported plasma protein binding) [3, 5]: < 0.01

CC(C)OC(=O)[C@H](C)N[P@](=O)(OC[C@H]1O[C@@H](n2ccc(=O)[nH]c2=O)[C@](C)(F)[C@@H]1O)Oc1ccccc1 [Sofosbuvir, sofosbuvir]
concentrations removed from fitting (bell-shaped curve, suspected cytotoxicity) (human hepatocytes): 300 µM | true negative in vitro induction (CYP3A4 mRNA): negative in one donor | concentration-dependent increase in CYP3A4 mRNA (CYP3A4 mRNA): concentration-dependent increases in two of three donors

O=C(O)c1ccc2nc(-c3cc(Cl)cc(Cl)c3)oc2c1 [Tafamidis, tafamidis]
concentration-dependent increase in CYP3A4 mRNA (CYP3A4 mRNA): concentration-dependent increases in all three donors | fu (reported plasma protein binding) ([3]; plasma): 0.005 | % loss when comparing the Cavg to the T0 concentration (limited depletion) [1]: < 25%

CCC(=O)NC[C@@H]1C[C@H]1c1cccc2c1CCO2 [Tasimelteon, tasimelteon]
concentration-dependent increase in CYP3A4 mRNA (CYP3A4 mRNA): concentration-dependent increases in all three donors

C[C@H](Cn1cnc2c(N)ncnc21)OCP(=O)(O)O [Tenofovir, tenofovir]
true negative in vitro induction (CYP3A4 mRNA): true in vitro negatives in all three donors | % loss when comparing the Cavg to the T0 concentration (limited depletion) [1]: < 25%

CCc1ccc(CCOc2ccc(CC3SC(=O)NC3=O)cc2)nc1 (stereo not drawn) [pioglitazone]
observed fu,in vitro [2]: 0.22

CN(CCOc1ccc(CC2SC(=O)NC2=O)cc1)c1ccccn1 (stereo not drawn) [rosiglitazone]
observed fu,in vitro [2]: 0.15

Reference: paper PMC9232448 (European Journal of Drug Metabolism and Pharmacokinetics, 2022)
